Source: article doi:10.1101/2023.04.18.537371v1 (bioRxiv, 2023)
Ends that are not written are not given here.

Assays:
[1] = Plasma and brain levels in male CD-1 mice after a single IP dose; format: in vivo, CD-1 mouse; settings: for Tissue Homogenate Conc / Plasma Conc: male CD-1 mice, IP 10 mg/kg single
TLR2 = settings: read-out: KD for binding to TLR2; ref 1 (Li et al); cited from earlier work
[2] = male, CD-1, mouse, brain homogenate, ip, 10 mg/kg
[3] = male, CD-1, mouse, brain, ip, 10 mg/kg
[4] = male, CD-1, mouse, plasma, ip, 10 mg/kg

With “RKDVY [TP5, thymopentin, reference compound] [listing 1 of 2 here]” the “Tissue Homogenate Conc” value ([1]; brain homogenate, 0.5 h, animal 2) was 2.17 ng/mL, the “Tissue Homogenate Conc” value ([1]; brain homogenate, 0.5 h, animal 3) was 3.18 ng/mL and the “Tissue Homogenate Conc” value ([1]; brain homogenate, 1 h, animal 1) was 1.69 ng/mL. For the same substance, the “Tissue Homogenate Conc” value ([1]; brain homogenate, 1 h, animal 2) was 1.78 ng/mL, the “Tissue Homogenate Conc” value ([1]; brain homogenate, 1 h, animal 3) was 2.20 ng/mL and the “Tissue Homogenate Conc” value ([1]; brain homogenate, 2 h, animal 1) was 1.64 ng/mL. The “Tissue Homogenate Conc” value ([1]; brain homogenate, 2 h, animal 2) was 1.28 ng/mL, the “Tissue Homogenate Conc” value ([1]; brain homogenate, 2 h, animal 3) was 1.22 ng/mL and the “Tissue Homogenate Conc” value ([1]; brain homogenate, 4 h, animal 1) was 1.16 ng/mL. The “Tissue Homogenate Conc” value ([1]; brain homogenate, 4 h, animal 2) was 1.03 ng/mL, the “Tissue Homogenate Conc” value ([1]; brain homogenate, 4 h, animal 3) was 1.08 ng/mL and the level at 0.5 h [1, 2] was 2.56 ng/mL. The level at 1 h [1, 2] was 1.89 ng/mL, the level at 2 h [1, 2] was 1.38 ng/mL and the level at 4 h [1, 2] was 1.09 ng/mL. It also gave a tissue level at time at 0.5 h [1, 3] of 10.3 ng/g, a tissue level at time at 1 h [1, 3] of 7.56 ng/g and a tissue level at time at 2 h [1, 3] of 5.52 ng/g. It also gave a tissue level at time at 4 h [1, 3] of 4.36 ng/g, a level at 0.5 h [1, 4] of 132 ng/mL and a level at 1 h [1, 4] of 90.9 ng/mL. It also gave a level at 2 h [1, 4] of 59.5 ng/mL, a level at 4 h [1, 4] of 49 ng/mL and a level at 8 h [1, 4] of 27.6 ng/mL. For the same substance, the “Plasma Conc” value ([1]; plasma, 0.5 h, animal 1, LC-MS/MS) was 144 ng/mL, the “Plasma Conc” value ([1]; plasma, 0.5 h, animal 2) was 136 ng/mL and the “Plasma Conc” value ([1]; plasma, 0.5 h, animal 3) was 115 ng/mL. For the same substance, the “Plasma Conc” value ([1]; plasma, 1 h, animal 1) was 80.1 ng/mL, the “Plasma Conc” value ([1]; plasma, 1 h, animal 2) was 107 ng/mL and the “Plasma Conc” value ([1]; plasma, 1 h, animal 3) was 85.7 ng/mL. For the same substance, the “Plasma Conc” value ([1]; plasma, 2 h, animal 1) was 56.5 ng/mL, the “Plasma Conc” value ([1]; plasma, 2 h, animal 2) was 67.2 ng/mL and the “Plasma Conc” value ([1]; plasma, 2 h, animal 3) was 54.8 ng/mL. For the same substance, the “Plasma Conc” value ([1]; plasma, 4 h, animal 1) was 53.4 ng/mL, the “Plasma Conc” value ([1]; plasma, 4 h, animal 2) was 42.2 ng/mL and the “Plasma Conc” value ([1]; plasma, 4 h, animal 3) was 51.3 ng/mL. For the same substance, the “Plasma Conc” value ([1]; plasma, 8 h, animal 1) was 28.7 ng/mL, the “Plasma Conc” value ([1]; plasma, 8 h, animal 2) was 30.6 ng/mL and the “Plasma Conc” value ([1]; plasma, 8 h, animal 3) was 23.6 ng/mL.

For “RKDVY [TP5, thymopentin, reference compound] [listing 2 of 2 here]”, the Kd (TLR2) is given as 1570 nM.
